# Measured values: ChEMBL document CHEMBL1221319, “Synthesis and biological evaluation of vitamin K derivatives as angiogenesis inhibitor” (Bioorg Med Chem, 2010)
# Activity calls are given as the source filed them. The rule behind the calls is not given here.
# Experiments:
# Aorta [1] = assay: Ex vivo antiangiogenic activity in Wistar rat aortic ring assessed as inhibition of angiogenesis at 100 uM after 7 days by phase-contrast microscopy; type: functional, tissue-based
# Aorta [2] = assay: Ex vivo antiangiogenic activity in Wistar rat aortic ring assessed as decrease of microvessel length at 100 uM after 7 days by phase-contrast microscopy; type: functional, tissue-based
# Aorta [3] = assay: Ex vivo antiangiogenic activity in Wistar rat aortic ring assessed as inhibition of angiogenesis at 50 uM after 7 days by phase-contrast microscopy; type: functional
# Aorta [4] = assay: Ex vivo antiangiogenic activity in Wistar rat aortic ring assessed as inhibition of angiogenesis after 7 days by phase-contrast microscopy; type: functional, tissue-based
# HUVEC [5] = assay: Antiangiogenic activity in HUVEC assessed as reduction of tube formation at 100 uM after 12 hrs by phase-contrast microscopy; type: functional, cell-based; conditions: Homo sapiens
# HUVEC [6] = assay: Inhibition of VEGF-induced HUVEC migration at 100 uM after 6 hrs by gelatin-coated Boyden chamber assay; type: functional, cell-based; conditions: Homo sapiens
# HUVEC [7] = assay: Antiproliferative activity against HUVEC at 5 to 100 uM after 72 hrs by WST-1 assay; type: functional, cell-based; conditions: Homo sapiens
# HCT-116 = assay: Cytotoxicity against human HCT116 cells; type: functional
# [8] = Cytotoxicity against HDF; conditions: human
SMILES,Activity (Aorta [1]),Activity (Aorta [2]),further results
CCCCCCCCCNC1=C(C)C(=O)c2ccccc2C1=O,inactive,inactive,–
CNC1=C(C)C(=O)c2ccccc2C1=O,Active,–,–
CCCCCCCC1=C(C)C(=O)c2ccccc2C1=O,inactive,inactive,–
CCCCCCCCCCC1=C(C)C(=O)c2ccccc2C1=O,inactive,inactive,–
CCC1=C(C)C(=O)c2ccccc2C1=O,Active,–,–
CCCCC1=C(C)C(=O)c2ccccc2C1=O,inactive,Active,–
CCCNC1=C(C)C(=O)c2ccccc2C1=O,Active,Active,Activity (Aorta [3]): >50 µM; Activity (Aorta [4]): Dose-dependent effect; Activity (HUVEC [5]): Active; inhibition (HUVEC [6]): inactive; Activity (HUVEC [7]): Active; Activity (HCT-116): >100 µM; Activity [8]: > 100 µM
CCCCCCNC1=C(C)C(=O)c2ccccc2C1=O,inactive,inactive,–
CC1=C(C2=C(C)C(=O)c3ccccc3C2=O)C(=O)c2ccccc2C1=O,inactive,–,–
CC1=C(Br)C(=O)c2ccccc2C1=O,Active,–,–
